Assay results from US20210008161A1, “METHODS AND COMPOSITIONS FOR IMPROVED HOMOLOGY DIRECTED REPAIR” (CRISPR THERAPEUTICS AG, priority 2019, published 2021).

Key:
[1] = test system: HEK293 T cells; assay: BFP to GFP fluorescent reporter assay of HDR efficiency (AAVS1 locus); format: cell-based, human; details: different concentrations/doses, FIG. 1B, 1C
Procedure: An in vitro assay was conducted to determine the ability of various inhibitors and enhancers to improve the efficiency of HDR repair in HEK293 T cells. Specifically, a fluorescent reporter-based screening approach was developed to identify molecules that enhance gene-editing by HDR. A reporter system was generated in HEK293 T cells comprising a genomic AAVS1 locus that encoded either a blue fluorescent protein (BFP) or a green fluorescent protein (GFP) within the AAVS1 locus. A gene encoding BFP can be converted to a gene encoding GFP by substitution of cytosine at position 199 to uridine (e.g., a C to U transition at position 199). By introducing a DSB within the BFP gene using a CRISPR/Cas9 gene-editing system, a homology donor DNA encoding the nucleotide substitution can be used to edit the BFP gene to a GFP gene by HDR repair. Thus, a gene edit that induces a C to U transition at position 199 results in a change in cellular fluorescence. A change in the fluorescence of the cell measured by flow cytometry can be used to quantify efficiency of HDR repair. Additionally, the reverse gene edit can be performed for an AAVS1 locus encoding a GFP gene, wherein a GFP can be converted to BFP by substitution of uridine at position 199 to cytosine.
To create the reporter system, an AAV-based homology donor DNA encoding either BFP or GFP was created. The AAV-BFP or AAV-GFP donor was flanked by homology arms that were 1000 base pairs in length and expression of BFP or GFP was driven by the MND promoter (e.g., a synthetic promoter that contains the U3 region of a modified Moloney murine leukemia virus long term terminal repeat with myeloproliferative sarcoma virus enhancer and deleted negative control region, SEQ ID NO: 58). The viral DNA was packaged into capsids of adeno-associated virus serotype 6 (AAV6) vector. Either the BFP or GFP donor was introduced using the AAV6 vector into the AAVS1 locus in HEK293 T cells by homologous recombination using CRISPR-Cas9 as follows: purified Cas9 protein was complexed with two different single gRNAs (sgRNAs) targeting the AAVS1 locus at SEQ ID NO: 3 (spacer sequence identified by SEQ ID NO: 4; gRNA obtained from Maxcyte) or SEQ ID NO: 5 (spacer sequence identified by SEQ ID NO: 6; gRNA obtained from Thermo Fisher). Cas9 protein used in the Exemplary section provided herein refers to Cas9 polypeptide derived from S. pyogenes (SpCas9), unless indicated otherwise.
The Cas9-sgRNA complex was electroporated into the HEK293 T cells using the Lonza Nucleofector program CM-130. Approximately, 2 hours after electroporation, the cells were infected with various viral doses of AAV6 encoding a BFP (SEQ ID NO: 44) or GFP homology donor (SEQ ID NO: 47). One week later, cells were analyzed by flow cytometry to verify integration and expression of BFP or GFP in the AAVS1 locus. HEK293 T cells expressing BFP or GFP were sorted into single cells in 96-well plates. After ˜2 weeks of growth, DNA extracted from individual cells was analyzed for precise integration of the respective BFP or GFP gene into the AAVS1 locus by long-range PCR. This PCR analysis allowed for determination of whether the BFP/GFP gene was integrated in one or both alleles of the AAVS1 locus.
To introduce a gene edit that converts BFP to GFP, cells were electroporated with ribonucleoprotein (RNP) comprised of Cas9 and sgRNA that targets the BFP gene encoded in the AAVS1 locus. The sgRNA targeted a sequence in the BFP gene identified by SEQ ID NO: 7 (sgRNA spacer sequence identified by SEQ ID NO: 8). The sgRNA were prepared using a standard sgRNA cassette specific to SpCas9, as indicated by SEQ ID NO: 2 (wherein a, c, g, u represent 2′ O-methyl phosphorothioate nucleotides; s represents phosphorothioate nucleotides; and A, C, G, U, N represent canonical RNA nucleotides). The gRNAs used in the Exemplary section provided herein were sgRNAs prepared with the SpCas9 sgRNA cassette unless indicated otherwise. […]

[2] = test system: CD34-expressing LT-HSPCs; assay: HDR insertion of AAV-delivered GFP donor into HBB locus (GFP fluorescence); format: cell-based, human; details: HBB locus in LT-HSPCs; any dose tested; data not shown
Procedure: Frozen CD34-expressing LT-HSPCs derived from plerixafor (i.e., Mozibil®)+GCSF-dual mobilized peripheral blood obtained from healthy human donors were purchased from a commercial vendor. LT-HSPCs were maintained in culture media comprised of the reagents shown in Table 4 and were incubated at 37° C., 5% carbon dioxide, 4% oxygen. […] 2×10^5 cells were edited with 3 μg Cas9 and 3 μg gRNA. The target gene sequence (including target sequence with PAM), R02 spacer sequence, and R02 sgRNA sequence are identified in Table 3.
The cells were transfected with a dsDNA homology donor encoding GFP under a SFFV promoter (SEQ ID NO: 60) that was delivered by AAV (SEQ ID NO: 56). […] The HDR efficiency was determined by measuring the level of GFP fluorescence in the cells following electroporation. To determine the effect of 53BP1 inhibition on HDR efficiency, the 53BP1 inhibitor i53 was introduced as an mRNA-encoded protein to the cells during electroporation with Cas9/gRNA RNP and AAV DNA that serves as a donor for homology directed repair.
The effect of 53BP1 inhibition on HDR efficiency was compared to other mRNA-encoded proteins that inhibit the NHEJ pathway. These included the proteins CYREN1 and CYREN2 that inhibit Ku70/80, a heterodimer that binds DNA blunt ends to prevent processing of 3′ single-stranded DNA tails necessary for HDR repair. Cells were electroporated with RNP, an AAV-GFP homology donor and mRNA encoding either i53 (mRNA ORF shown in SEQ ID NO: 69), CYREN1, or CYREN2.
The effect of treatment with i53 and Nu7441 was compared for improving efficiency of HDR repair of the HBB locus. Cells were treated with different doses of Nu7441 or with mRNA encoding i53 (ORF shown by SEQ ID NO: 69).

| Compound | HDR efficiency [1] | HDR efficiency [2] |
| --- | --- | --- |
| CCCCCCNC(=O)Nc1ccc(S(=O)(=O)Nc2ccc(CCNC[C@H](O)COc3ccc(O)cc3)cc2)cc1 [L755,507] | no improvement |  |
| C[C@]1(c2nc3c(C(N)=O)cccc3[nH]2)CCCN1 [Veliparib] | no improvement |  |
| Cl.O=c1[nH]c([C@@H]2CCCN2)nc2c1oc1ccc(Cl)cc12 [XL 413, reference compound] |  | no improvement |
